Legend:
Experiment in all cases: relative viability (nuclei count vs DMSO), 5 days (fraction); higher = more cells survive
COR-L 105 = tested on: COR-L 105
Summary of the method: (§1)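 Lung cancer cell lines in 1536-well plates were dosed by pin tool the day after seeding, either with one drug alone or with a fixed anchor-drug dose plus five library-drug doses (not always all listed) in √10 steps. After 5 days, cells were fixed and their nuclei stained in one step (final 0.05% Triton X-100, 1% formaldehyde, 1 ug/ml Hoechst), then counted on 4× images. Relative viability is the nuclei count in treated wells divided by that in vehicle wells. Values are medians of duplicate plates.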

COR-L23 = tested on: COR-L23
Summary of the method: as §1

HARA = tested on: HARA
Summary of the method: as §1

HCC-15 = tested on: HCC-15
Summary of the method: as §1

HOP-62 = tested on: HOP-62
Summary of the method: as §1

NCI-H1355 = tested on: NCI-H1355
Summary of the method: as §1

NCI-H1395 = tested on: NCI-H1395
Summary of the method: as §1

NCI-H1734 = tested on: NCI-H1734
Summary of the method: as §1

NCI-H1755 = tested on: NCI-H1755
Summary of the method: as §1

NCI-H1792 = tested on: NCI-H1792
Summary of the method: as §1

NCI-H1793 = tested on: NCI-H1793
Summary of the method: as §1

NCI-H1993 = tested on: NCI-H1993
Summary of the method: as §1

NCI-H2009 = tested on: NCI-H2009
Summary of the method: as §1

NCI-H2170 = tested on: NCI-H2170
Summary of the method: as §1

NCI-H2228 = tested on: NCI-H2228
Summary of the method: as §1

NCI-H2347 = tested on: NCI-H2347
Summary of the method: as §1

NCI-H358 = tested on: NCI-H358
Summary of the method: as §1

NCI-H522 = tested on: NCI-H522
Summary of the method: as §1

NCI-H647 = tested on: NCI-H647
Summary of the method: as §1

NCI-H838 = tested on: NCI-H838
Summary of the method: as §1

SK-MES-1 = tested on: SK-MES-1
Summary of the method: as §1

UMC-11 = tested on: UMC-11
Summary of the method: as §1

For `CC(=O)O[C@@]12CO[C@@H]1C[C@H](O)[C@@]1(C)C(=O)[C@H](O)C3=C(C)[C@@H](OC(=O)[C@H](O)[C@@H](NC(=O)OC(C)(C)C)c4ccccc4)C[C@@](O)([C@@H](OC(=O)c4ccccc4)[C@H]21)C3(C)C` [Docetaxel] + Cc1nc(Nc2ncc(C(=O)Nc3c(C)cccc3Cl)s2)cc(N2CCN(CCO)CC2)n1 [Dasatinib] (partner 0.075 µM), the relative viability (COR-L 105; first compound 0.0002 µM) was 0.322, the relative viability (COR-L 105; first compound 0.000632 µM) was 0.288 and the relative viability (COR-L 105; first compound 0.002 µM) was 0.224. For the same compound, the relative viability (COR-L 105; first compound 0.006325 µM) was 0.249, the relative viability (COR-L 105; first compound 0.02 µM) was 0.202 and the relative viability (COR-L23; first compound 0.0002 µM) was 0.458. For the same compound, the relative viability (COR-L23; first compound 0.000632 µM) was 0.406, the relative viability (COR-L23; first compound 0.002 µM) was 0.226 and the relative viability (COR-L23; first compound 0.006325 µM) was 0.112. For the same compound, the relative viability (COR-L23; first compound 0.02 µM) was 0.0725, the relative viability (HARA; first compound 0.0002 µM) was 0.261 and the relative viability (HARA; first compound 0.000632 µM) was 0.173. For the same compound, the relative viability (HARA; first compound 0.002 µM) was 0.134, the relative viability (HARA; first compound 0.006325 µM) was 0.0839 and the relative viability (HARA; first compound 0.02 µM) was 0.0451. It also gave a relative viability (HCC-15; first compound 0.0002 µM) of 0.456, a relative viability (HCC-15; first compound 0.000632 µM) of 0.221 and a relative viability (HCC-15; first compound 0.002 µM) of 0.16. The relative viability (HCC-15; first compound 0.006325 µM) was 0.21, the relative viability (HCC-15; first compound 0.02 µM) was 0.115 and the relative viability (HOP-62; first compound 0.0002 µM) was 0.56. The relative viability (HOP-62; first compound 0.000632 µM) was 0.58, the relative viability (HOP-62; first compound 0.002 µM) was 0.309 and the relative viability (HOP-62; first compound 0.02 µM) was 0.155. It also gave a relative viability (NCI-H1355; first compound 0.0002 µM) of 0.726, a relative viability (NCI-H1355; first compound 0.000632 µM) of 0.665 and a relative viability (NCI-H1355; first compound 0.002 µM) of 0.472. For the same compound, the relative viability (NCI-H1355; first compound 0.006325 µM) was 0.314, the relative viability (NCI-H1355; first compound 0.02 µM) was 0.203 and the relative viability (NCI-H1395; first compound 0.0002 µM) was 0.439. For the same compound, the relative viability (NCI-H1395; first compound 0.000632 µM) was 0.469, the relative viability (NCI-H1395; first compound 0.002 µM) was 0.402 and the relative viability (NCI-H1395; first compound 0.006325 µM) was 0.327. The relative viability (NCI-H1395; first compound 0.02 µM) was 0.272, the relative viability (NCI-H1734; first compound 0.0002 µM) was 0.46 and the relative viability (NCI-H1734; first compound 0.000632 µM) was 0.286. It also gave a relative viability (NCI-H1734; first compound 0.002 µM) of 0.234, a relative viability (NCI-H1734; first compound 0.006325 µM) of 0.239 and a relative viability (NCI-H1734; first compound 0.02 µM) of 0.163. The relative viability (NCI-H1755; first compound 0.0002 µM) was 0.385, the relative viability (NCI-H1755; first compound 0.000632 µM) was 0.359 and the relative viability (NCI-H1755; first compound 0.002 µM) was 0.306. For the same compound, the relative viability (NCI-H1755; first compound 0.006325 µM) was 0.286, the relative viability (NCI-H1755; first compound 0.02 µM) was 0.222 and the relative viability (NCI-H1792; first compound 0.0002 µM) was 0.796. It also gave a relative viability (NCI-H1792; first compound 0.000632 µM) of 0.707, a relative viability (NCI-H1792; first compound 0.002 µM) of 0.648 and a relative viability (NCI-H1792; first compound 0.006325 µM) of 0.482. It also gave a relative viability (NCI-H1792; first compound 0.02 µM) of 0.22, a relative viability (NCI-H1793; first compound 0.0002 µM) of 0.351 and a relative viability (NCI-H1793; first compound 0.000632 µM) of 0.345. The relative viability (NCI-H1793; first compound 0.002 µM) was 0.279, the relative viability (NCI-H1793; first compound 0.006325 µM) was 0.175 and the relative viability (NCI-H1793; first compound 0.02 µM) was 0.16. It also gave a relative viability (NCI-H1993; first compound 0.0002 µM) of 0.569, a relative viability (NCI-H1993; first compound 0.000632 µM) of 0.612 and a relative viability (NCI-H1993; first compound 0.002 µM) of 0.589. For the same compound, the relative viability (NCI-H1993; first compound 0.006325 µM) was 0.638, the relative viability (NCI-H1993; first compound 0.02 µM) was 0.465 and the relative viability (NCI-H2009; first compound 0.0002 µM) was 0.261. For the same compound, the relative viability (NCI-H2009; first compound 0.000632 µM) was 0.299, the relative viability (NCI-H2009; first compound 0.002 µM) was 0.273 and the relative viability (NCI-H2009; first compound 0.006325 µM) was 0.204. For the same compound, the relative viability (NCI-H2009; first compound 0.02 µM) was 0.121, the relative viability (NCI-H2170; first compound 0.0002 µM) was 0.6 and the relative viability (NCI-H2170; first compound 0.000632 µM) was 0.574. For the same compound, the relative viability (NCI-H2170; first compound 0.002 µM) was 0.428, the relative viability (NCI-H2170; first compound 0.006325 µM) was 0.141 and the relative viability (NCI-H2170; first compound 0.02 µM) was 0.14. It also gave a relative viability (NCI-H2228; first compound 0.0002 µM) of 0.429, a relative viability (NCI-H2228; first compound 0.000632 µM) of 0.151 and a relative viability (NCI-H2228; first compound 0.002 µM) of 0.12. For the same compound, the relative viability (NCI-H2228; first compound 0.006325 µM) was 0.146, the relative viability (NCI-H2228; first compound 0.02 µM) was 0.0836 and the relative viability (NCI-H2347; first compound 0.0002 µM) was 0.336. The relative viability (NCI-H2347; first compound 0.000632 µM) was 0.326, the relative viability (NCI-H2347; first compound 0.002 µM) was 0.242 and the relative viability (NCI-H2347; first compound 0.006325 µM) was 0.23. For the same compound, the relative viability (NCI-H2347; first compound 0.02 µM) was 0.241, the relative viability (NCI-H358; first compound 0.0002 µM) was 0.159 and the relative viability (NCI-H358; first compound 0.000632 µM) was 0.179. For the same compound, the relative viability (NCI-H358; first compound 0.006325 µM) was 0.111, the relative viability (NCI-H358; first compound 0.02 µM) was 0.0699 and the relative viability (NCI-H522; first compound 0.0002 µM) was 0.712. For the same compound, the relative viability (NCI-H522; first compound 0.000632 µM) was 0.866, the relative viability (NCI-H522; first compound 0.002 µM) was 0.649 and the relative viability (NCI-H522; first compound 0.006325 µM) was 0.672. The relative viability (NCI-H522; first compound 0.02 µM) was 0.49, the relative viability (NCI-H647; first compound 0.0002 µM) was 0.137 and the relative viability (NCI-H647; first compound 0.000632 µM) was 0.132. The relative viability (NCI-H647; first compound 0.002 µM) was 0.0799, the relative viability (NCI-H647; first compound 0.006325 µM) was 0.0795 and the relative viability (NCI-H647; first compound 0.02 µM) was 0.0407. For the same compound, the relative viability (NCI-H838; first compound 0.0002 µM) was 0.318, the relative viability (NCI-H838; first compound 0.000632 µM) was 0.3 and the relative viability (NCI-H838; first compound 0.002 µM) was 0.265. The relative viability (NCI-H838; first compound 0.006325 µM) was 0.247, the relative viability (NCI-H838; first compound 0.02 µM) was 0.175 and the relative viability (SK-MES-1; first compound 0.0002 µM) was 0.326. The relative viability (SK-MES-1; first compound 0.000632 µM) was 0.316, the relative viability (SK-MES-1; first compound 0.002 µM) was 0.19 and the relative viability (SK-MES-1; first compound 0.006325 µM) was 0.167. For the same compound, the relative viability (SK-MES-1; first compound 0.02 µM) was 0.072, the relative viability (UMC-11; first compound 0.0002 µM) was 0.429 and the relative viability (UMC-11; first compound 0.000632 µM) was 0.42. It also gave a relative viability (UMC-11; first compound 0.002 µM) of 0.264, a relative viability (UMC-11; first compound 0.006325 µM) of 0.21 and a relative viability (UMC-11; first compound 0.02 µM) of 0.171.
